How the values were obtained:
Type in all cases: in vivo, rat
Sprague Dawley rats = experiment: IR (30 minutes ischemia) infarct size, single IV therapy 15 min before reperfusion
Description: Lateral thoracotamy with 30 minutes ischemia>reperfusion was performed a treated per the groups above 15 min before reperfusion IV in the femoral artery. Animals were humanely sacrificed and the hearts were then section and stained to examine tissue injury.

Sprague-Dawley rats [1] = experiment: Permanent coronary occlusion infarct size (Example 2); conditions: epicatechin 1 mg/kg/day oral
Description: Determination of Infarct Size: Terminal study hearts were excised and weighed. In 48 h hearts, the area at risk was determined by the reocclusion of the snare and infusion of trypan blue (0.4%) into the cannulated aorta. […] Computer assisted image analysis was used using blinded operators. For 3 week studies hearts were processed as above and sectioned to identify the infarct (i.e. scar) area. The images of unfixed, stained rings were also used to measure internal and external chamber diameters, anterior and septal wall thicknesses. Adult male Sprague-Dawley rats (Harlan, Indianapolis, Ind.) weighing ˜250 g were used. […] Sigma-Aldrich, St. Louis, Mo.) or vehicle (water) was administered orally by gavage once/day beginning 10 days before thoracotomy and continuing until the time of the terminal study (48 h or 3 weeks). Thoracotomy was performed at day 10. In the sham group, the chest was only opened and closed; no artery was permanently occluded. […] At 48 hours the animals were anesthetized and hemodynamics recorded. The heart was excised and for infarcted animals only the infarct size and heart structure (morphometry) were determined. […] At 3 weeks the animals were anesthetized and hemodynamics recorded. The heart was excised and for infarcted animals only the infarct size and heart structure (morphometry) were determined.

Sprague-Dawley rats [2] = experiment: Hemodynamics after permanent coronary occlusion (Example 2); conditions: for LVEDP / LVPSP / MAP: epicatechin; for HR: epicatechin 1 mg/kg/day
Description: (§1) Hemodynamics: All animals were weighed and anesthetized with 5% isoflurane (maintenance at 1-2%). Arterial (carotid) and LV pressures were measured using a micromanometer just prior to sacrifice and data digitally recorded.
Adult male Sprague-Dawley rats (Harlan, Indianapolis, Ind.) weighing ˜250 g were used. Epicatechin (1 mg/kg/day; Sigma-Aldrich, St. Louis, Mo.) or vehicle (water) was administered orally by gavage once/day beginning 10 days before thoracotomy and continuing until the time of the terminal study (48 h or 3 weeks). Thoracotomy was performed at day 10. In the sham group, the chest was only opened and closed; no artery was permanently occluded. For the infarct group, the left anterior descending coronary artery was permanently occluded. In the 48 hour treatment arm, the animals were allowed to heal with treatment of epicatechin at 1 mg/kg/day continued for 48 hours. At 48 hours the animals were anesthetized and hemodynamics recorded. The heart was excised and for infarcted animals only the infarct size and heart structure (morphometry) were determined. In the 3 week treatment arm, the animals were allowed to heal for 3 weeks with daily treatment of epicatechin at 1 mg/kg/day. At 3 weeks the animals were anesthetized and hemodynamics recorded. The heart was excised and for infarcted animals only the infarct size and heart structure (morphometry) were determined.
Methods of determining infarct size, hemodynamics, tissue collection statistical analysis is as described in Example 1.

Sprague-Dawley rats [3] = experiment: Cardiac morphometry 3 weeks after IR (Example 1); conditions: epicatechin
Description: Adult male Sprague-Dawley rats (Harlan, Indianapolis, Ind.) weighing ˜250 g were used. […] Sigma-Aldrich, St. Louis, Mo.) or vehicle (water) was administered orally by gavage once/day beginning 10 days before thoracotomy and continuing until the time of the terminal study (48 h or 3 weeks). A subgroup of “normal” animals were treated with water or epicatechin for 10 day and were used to evaluate the effects of epicatechin on hemodynamics. […] Determination of Infarct Size: Terminal study hearts were excised and weighed. In 48 h hearts, the area at risk was determined by the reocclusion of the snare and infusion of trypan blue (0.4%) into the cannulated aorta. […] Computer assisted image analysis was used using blinded operators. For 3 week studies hearts were processed as above and sectioned to identify the infarct (i.e. scar) area. The images of unfixed, stained rings were also used to measure internal and external chamber diameters, anterior and septal wall thicknesses.

Sprague-Dawley rats [4] = experiment: Hemodynamics in normal, sham and IR rats (Example 1)
Description: (§2) Adult male Sprague-Dawley rats (Harlan, Indianapolis, Ind.) weighing ˜250 g were used. Epicatechin (1 mg/kg/day; Sigma-Aldrich, St. Louis, Mo.) or vehicle (water) was administered orally by gavage once/day beginning 10 days before thoracotomy and continuing until the time of the terminal study (48 h or 3 weeks). A subgroup of “normal” animals were treated with water or epicatechin for 10 day and were used to evaluate the effects of epicatechin on hemodynamics. For 48 hr studies the groups included IR and IR+10 day epicatechin. For 3 week studies, the groups included sham, sham+10 day epicatechin, IR and IR+10 day epicatechin.
as §1
Hemodynamics: Hemodynamics (Table 1A) were measured in normal and normal+10 d epicatechin. […] Values shown are mean ±SEM. Statistical analysis was done by ANOVA except where denoted. In the IR group the rats are fed the control and ischemia is induced (by temporary occlusion of the coronary artery). In the IR+epicatechin the rats are given epicatechin and ischemia is induced. […] The purpose of these two groups was to determine baseline hemodynamics.

Sprague-Dawley rats [5] = experiment: Ischemia-reperfusion (45 min coronary ligation) infarct size, oral epicatechin pre-treatment (Example 1); conditions: for infarct area: epicatechin 1 mg/kg/day oral
Description: as §2
Ischemia-reperfusion: Animals were anesthetized by intraperitoneal injection of ketamine (100 mg/kg) and xylazine (10 mg/kg), intubated, and positive-pressure ventilated. Following a left thoracotomy, the left anterior descending coronary artery was ligated for 45 min, (except in shams) released and the suture left in place. The chest was closed and animals allowed to fully recover. Successful occlusion and reperfusion were verified by visual inspection of left ventricle (LV) color. Sham animals were treated identically, except the ligature was not tightened.
Determination of Infarct Size: Terminal study hearts were excised and weighed. In 48 h hearts, the area at risk was determined by the reocclusion of the snare and infusion of trypan blue (0.4%) into the cannulated aorta. Hearts were sectioned at 0 mmHg into five 2 mm rings and stained using triphenyltetrazolium chloride to determine the infarct area. Computer assisted image analysis was used using blinded operators. For 3 week studies hearts were processed as above and sectioned to identify the infarct (i.e. scar) area. The images of unfixed, stained rings were also used to measure internal and external chamber diameters, anterior and septal wall thicknesses.
Statistical Analysis Comparisons between means±S.E.M were analyzed by student's t-tests or one-way ANOVA followed by Bonferroni post-hoc. P<0.05 was considered statistically significant. The investigator who analyzed the data was blinded to what group (control vs. treatment with epicatechin) the animal belonged to.

Sprague-Dawley rats [6] = experiment: Cardiac morphometry after permanent coronary occlusion (Example 2); conditions: epicatechin
Description: Determination of Infarct Size: Terminal study hearts were excised and weighed. In 48 h hearts, the area at risk was determined by the reocclusion of the snare and infusion of trypan blue (0.4%) into the cannulated aorta. […] Computer assisted image analysis was used using blinded operators. For 3 week studies hearts were processed as above and sectioned to identify the infarct (i.e. scar) area. The images of unfixed, stained rings were also used to measure internal and external chamber diameters, anterior and septal wall thicknesses. Adult male Sprague-Dawley rats (Harlan, Indianapolis, Ind.) weighing ˜250 g were used. […] Sigma-Aldrich, St. Louis, Mo.) or vehicle (water) was administered orally by gavage once/day beginning 10 days before thoracotomy and continuing until the time of the terminal study (48 h or 3 weeks). Thoracotomy was performed at day 10. In the sham group, the chest was only opened and closed; no artery was permanently occluded. For the infarct group, the left anterior descending coronary artery was permanently occluded. In the 48 hour treatment arm, the animals were allowed to heal with treatment of epicatechin at 1 mg/kg/day continued for 48 hours. At 48 hours the animals were anesthetized and hemodynamics recorded. The heart was excised and for infarcted animals only the infarct size and heart structure (morphometry) were determined. In the 3 week treatment arm, the animals were allowed to heal for 3 weeks with daily treatment of epicatechin at 1 mg/kg/day. At 3 weeks the animals were anesthetized and hemodynamics recorded. The heart was excised and for infarcted animals only the infarct size and heart structure (morphometry) were determined.

[7] = 48 h IR, 10 d epicatechin pretreatment

With `C[C@H]1c2cccc(O)c2C(O)=C2C(=O)[C@]3(O)C(O)=C(C(N)=O)C(=O)[C@@H](N(C)C)[C@@H]3[C@@H](O)[C@@H]21` [DOX, doxycycline] the “reduction of IR induced infarct size” value (Sprague Dawley rats; at 4 hours, IV 5 mg/kg) was roughly 10%.

For `Oc1cc(O)c2c(c1)O[C@H](c1ccc(O)c(O)c1)[C@H](O)C2` [epicatechin], the “reduction of infarct size” value (Sprague-Dawley rats [1]; 3 weeks after infarction (permanent occlusion), FIG. 9a) was 33%, the “reduction of infarct size” value (Sprague-Dawley rats [1]; 48 h after permanent coronary occlusion, FIG. 8) was 50% and the LVEDP (Sprague-Dawley rats [2]; PCO 3 week) was 11 ± 1 mmHg. It also gave an LVPSP (Sprague-Dawley rats [2]; PCO 3 week) of 102 ± 3 mmHg, an MAP (Sprague-Dawley rats [2]; PCO 3 week) of 82 ± 2 mmHg and an HR (Sprague-Dawley rats [2]; PCO 3 week) of 268 ± 10 bpm. The LVEDP (Sprague-Dawley rats [2]; PCO 48 h) was 5.8 ± 1.2 mmHg, the LVPSP (Sprague-Dawley rats [2]; PCO 48 h) was 107 ± 4 mmHg and the MAP (Sprague-Dawley rats [2]; PCO 48 h) was 91 ± 5 mmHg. The HR (Sprague-Dawley rats [2]; PCO 48 h) was 342 ± 8 bpm, the HR (Sprague-Dawley rats [2]; sham, 3 weeks after thoracotomy) was 303 ± 10 bpm and the LVEDP (Sprague-Dawley rats [2]; sham, 3 weeks) was 6.4 ± 0.9 mmHg. It also gave an LVPSP (Sprague-Dawley rats [2]; sham, 3 weeks) of 118 ± 4 mmHg, an MAP (Sprague-Dawley rats [2]; sham, 3 weeks) of 92 ± 4 mmHg and an LVEDP (Sprague-Dawley rats [2]; sham, 48 h) of 4.3 ± 1.2 mmHg. For the same molecule, the LVPSP (Sprague-Dawley rats [2]; sham, 48 h) was 102 ± 2 mmHg, the MAP (Sprague-Dawley rats [2]; sham, 48 h) was 83 ± 2 mmHg and the HR (Sprague-Dawley rats [2]; sham, 48 h after thoracotomy) was 334 ± 10 bpm. The AW thickness (Sprague-Dawley rats [3]; 3 wk IR) was 0.41 ± 0.02 mm, the “HW/BW (heart weight/body weight)” value (Sprague-Dawley rats [3]; 3 wk IR) was 4.5 ± 0.2 and the “Inner LV diam.” value (Sprague-Dawley rats [3]; 3 wk IR) was 0.55 ± 0.05 mm. For the same molecule, the “Outer LV diam.” value (Sprague-Dawley rats [3]; 3 wk IR) was 1.6 ± 0.04 mm, the SW thickness (Sprague-Dawley rats [3]; 3 wk IR) was 0.49 ± 0.03 mm and the AW thickness (Sprague-Dawley rats [3]; sham, 3 wk study) was 0.53 ± 0.05 mm. The “HW/BW (heart weight/body weight)” value (Sprague-Dawley rats [3]; sham, 3 wk study) was 3.2 ± 0.5, the “Inner LV diam.” value (Sprague-Dawley rats [3]; sham, 3 wk study) was 0.52 ± 0.08 mm and the “Outer LV diam.” value (Sprague-Dawley rats [3]; sham, 3 wk study) was 1.6 ± 0.1 mm. The SW thickness (Sprague-Dawley rats [3]; sham, 3 wk study) was 0.47 ± 0.04 mm, the “reduction of IR induced infarct size” value (Sprague Dawley rats; at 48 h, IV 10 mg/kg) was 36% and the “HR (heart rate)” value (Sprague-Dawley rats [4]; 3 wk IR, epicatechin) was 302 ±18^ bpm. The LVEDP (Sprague-Dawley rats [4]; 3 wk IR, epicatechin) was 5.5 ± 1.5 mmHg, the LVPSP (Sprague-Dawley rats [4]; 3 wk IR, epicatechin) was 108 ± 4 mmHg and the MAP (Sprague-Dawley rats [4]; 3 wk IR, epicatechin) was 85 ± 4 mmHg. For the same molecule, the “LVEDP (left ventricular end diastolic pressure)” value (Sprague-Dawley rats [4]; [7]) was 4.9 ± 0.5 mmHg, the “LVPSP (left ventricular peak systolic pressure)” value (Sprague-Dawley rats [4]; [7]) was 110 ± 5 mmHg and the “MAP (mean aortic pressure)” value (Sprague-Dawley rats [4]; [7]) was 90 ± 5 mm Hg. For the same molecule, the “HR (heart rate)” value (Sprague-Dawley rats [4]; 48 h IR, 10 d epicatechin pretreatment, mean ± SEM) was 373 ± 17 bpm, the “LVEDP (left ventricular end diastolic pressure)” value (Sprague-Dawley rats [4]; normal rats, 10 d epicatechin) was 6.7 ± 1.3 mmHg and the “LVPSP (left ventricular peak systolic pressure)” value (Sprague-Dawley rats [4]; normal rats, 10 d epicatechin) was 112 ± 14 mmHg. For the same molecule, the “MAP (mean aortic pressure)” value (Sprague-Dawley rats [4]; normal rats, 10 d epicatechin) was 99 ± 10 mm Hg, the “HR (heart rate)” value (Sprague-Dawley rats [4]; normal rats, 10 d epicatechin 1 mg/kg/day oral, mean ± SEM) was 346 ± 8 bpm and the “HR (heart rate)” value (Sprague-Dawley rats [4]; sham, 3 wk study, epicatechin) was 328 ± 11 bpm. The LVEDP (Sprague-Dawley rats [4]; sham, 3 wk study, epicatechin) was 2.6 ± 0.2 mmHg, the LVPSP (Sprague-Dawley rats [4]; sham, 3 wk study, epicatechin) was 116 ± 6.2 mmHg and the MAP (Sprague-Dawley rats [4]; sham, 3 wk study, epicatechin) was 92 ± 11 mmHg. The blood pressure (Sprague-Dawley rats [4]; ten days of treatment in noninfarcted animals) was “did not reduce blood pressure”, the infarct area (Sprague-Dawley rats [5]; 3 weeks after IR, control 50.4±5.6%, p=0.05) was 33.7±5.5% and the “reduction in scar size” value (Sprague-Dawley rats [5]; 3 weeks post-IR) was roughly 33%. For the same molecule, the infarct area (Sprague-Dawley rats [5]; 48 h after IR, 10 day pre-treatment, control 51.4±1.8%, P<0.0001) was 26.3±3.4%, the “reduction in infarct size” value (Sprague-Dawley rats [5]; temporary occlusion experiment, FIG. 1, vs vehicle) was roughly 50% and the AW thickness (Sprague-Dawley rats [6]; PCO 3 week) was 0.446 ± 0.04 mm. The HW/BW (Sprague-Dawley rats [6]; PCO 3 week) was 4.4 ± 0.7, the “Inner LV diam.” value (Sprague-Dawley rats [6]; PCO 3 week) was 0.546 ± 0.046 mm and the “Outer LV diam.” value (Sprague-Dawley rats [6]; PCO 3 week) was 1.495 ± 0.031 mm. For the same molecule, the SW thickness (Sprague-Dawley rats [6]; PCO 3 week) was 0.475 ± 0.02 mm, the AW thickness (Sprague-Dawley rats [6]; PCO 48 h) was 0.57 ± 0.03 mm and the SW thickness (Sprague-Dawley rats [6]; PCO 48 h) was 0.57 ± 0.02 mm. The AW thickness (Sprague-Dawley rats [6]; sham, 3 weeks) was 0.58 ± 0.05 mm, the HW/BW (Sprague-Dawley rats [6]; sham, 3 weeks) was 3.82 ± 0.3 and the “Inner LV diam.” value (Sprague-Dawley rats [6]; sham, 3 weeks) was 0.490 ± 0.046 mm. For the same molecule, the “Outer LV diam.” value (Sprague-Dawley rats [6]; sham, 3 weeks) was 1.469 ± 0.075 mm, the SW thickness (Sprague-Dawley rats [6]; sham, 3 weeks) was 0.38 ± 0.04 mm and the AW thickness (Sprague-Dawley rats [6]; sham, 48 h) was 0.54 ± 0.05 mm. It also gave an SW thickness (Sprague-Dawley rats [6]; sham, 48 h) of 0.33 ± 0.06 mm.

With catechin the area at risk (Sprague Dawley rats; methods of Example 5, FIG. 16) was “no effect” and the infarction size (Sprague Dawley rats; methods of Example 5, FIG. 16) was “no effect”.

Source: US8648059B2, “Use of epicatechin and derivatives and salts thereof for cardiac protection of ischemic myocardium and to ameliorate adverse cardiac remodeling” (The Regents of the University of California, priority 2008, dated 2014)
